The target of test [1] is T1, rat 5-HT7a receptor (Rattus norvegicus, UniProt P32305).
T1 construct: expressed in transfected cells
Description: Adenylyl cyclase assay (5-CT-stimulated cAMP) in r5-HT7a/HEK-293 cells. Format: cell-based. The method, then: 2. Effect on Adenylyl Cyclase Activity
In vitro functional properties of the compounds described in this invention were evaluated in an adenylyl cyclase assay. HEK-293 cells stably tranfected with the rat 5-HT7a receptor were plated into 96-well plates. Cells were washed with 200 μL DNEM/F12 and incubated for 10 min with 80 μL of 2 mM 3-isobutyl-1-methylxanthine. Compounds (10 μL) were added for another 10 min. Subsequently, 5-CT (10 μL) was added. After 20 min the incubation was stopped by the addition of 20 μL of 0.5 N HCl. Plates were incubated at 4° C. for 30 min. Twenty μL of the supernatant were assayed for cAMP content with a commercially available kit (Perkin Elmer) using ^125I-cAMP. Sigmoidal curves of best fit were calculated by nonlinear regression analysis using GrapPad Prism.
5-CT-stimulated adenylyl cyclase activity in r5-HT7a/HEK-293 cells was inhibited by Example 59 with an estimated pKB˜8 in good agreement with the Ki value determined from [^3H]5-CT binding studies.

Test [2] deals with human recombinant 5-HT2B receptor (Homo sapiens, UniProt P41595). The experiment in a line: 5-HT2B receptor radioligand binding ([3H]mesulergine, CHO membranes).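 Note: competitive displacement binding on membranes of CHO cells stably expressing the receptor.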
Test [3] concerns the target T1, rat 5-HT7a receptor. The experiment in a line: 5-HT7 receptor radioligand binding ([3H]5-CT, membranes of transfected HEK-293 cells). The note with it: rat 5-HT7a in HEK-293 membranes, 1 nM [3H]5-CT.
Test [4] deals with 5-HT2A receptor (UniProt P28223). Description: 5-HT2A receptor radioligand binding ([3H]ketanserin).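 Note: competitive displacement binding on membranes, either from rat cerebral cortex or from NIH3T3 cells stably expressing human 5-HT2A.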 The conditions noted are these: read-out: Ki 5-HT2A, table does not say whether rat cortex or human recombinant (NIH3T3) receptor.
Test [5] deals with T2, human recombinant 5-HT2C receptor (Homo sapiens, UniProt P28335).
T2 sequence (P28335 33-458): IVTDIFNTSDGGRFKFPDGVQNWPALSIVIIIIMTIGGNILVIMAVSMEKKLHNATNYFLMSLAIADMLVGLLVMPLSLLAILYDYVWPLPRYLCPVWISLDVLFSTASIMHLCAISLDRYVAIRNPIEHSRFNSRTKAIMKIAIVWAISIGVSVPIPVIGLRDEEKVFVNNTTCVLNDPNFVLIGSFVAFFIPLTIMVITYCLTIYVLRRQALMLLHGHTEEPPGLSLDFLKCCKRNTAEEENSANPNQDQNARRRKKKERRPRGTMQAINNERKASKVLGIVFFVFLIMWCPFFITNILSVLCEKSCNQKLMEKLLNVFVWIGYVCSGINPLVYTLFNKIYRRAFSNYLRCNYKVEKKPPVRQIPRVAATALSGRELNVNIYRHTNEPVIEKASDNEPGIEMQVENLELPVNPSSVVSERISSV
Description: 5-HT2C receptor radioligand binding ([3H]mesulergine, CHO membranes).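 Note: competitive displacement of the tritiated ligand, using membranes from CHO cells stably transfected with the human receptor.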
Description: Affinity for 5HT2 Receptor Binding Sites
Receptor binding was performed using the human recombinant 5-HT2A (GB: X57830), 5-HT2B (GB: Z36748) and 5-HT2c (GB: M81778) receptors. The affinity of the compounds for the 3 different human 5-HT2 receptor subtypes was evaluated by competitive radioligand binding assays using [^3H]ketanserin (h5-HT2A) or [^3H]mesulergine (h5-HT2B and h5-HT2c). The assays were performed on membranes prepared from NIH3T3 stably transfected with h5-HT2A or CHO stably transfected with h5-HT2B and h5-HT2C.

We go through 8 compounds from patent publication US20110040088A1, “FUSED HETEROCYCLIC COMPOUNDS” (priority 2003, published 2011).

Like-named read-outs stand apart in the source and are kept apart here.

The term Ki denotes the dissociation constant of the complex between target and ligand, obtained from inhibition or displacement.

human recombinant 5-HT2B receptor, sequence (P41595 whole entry): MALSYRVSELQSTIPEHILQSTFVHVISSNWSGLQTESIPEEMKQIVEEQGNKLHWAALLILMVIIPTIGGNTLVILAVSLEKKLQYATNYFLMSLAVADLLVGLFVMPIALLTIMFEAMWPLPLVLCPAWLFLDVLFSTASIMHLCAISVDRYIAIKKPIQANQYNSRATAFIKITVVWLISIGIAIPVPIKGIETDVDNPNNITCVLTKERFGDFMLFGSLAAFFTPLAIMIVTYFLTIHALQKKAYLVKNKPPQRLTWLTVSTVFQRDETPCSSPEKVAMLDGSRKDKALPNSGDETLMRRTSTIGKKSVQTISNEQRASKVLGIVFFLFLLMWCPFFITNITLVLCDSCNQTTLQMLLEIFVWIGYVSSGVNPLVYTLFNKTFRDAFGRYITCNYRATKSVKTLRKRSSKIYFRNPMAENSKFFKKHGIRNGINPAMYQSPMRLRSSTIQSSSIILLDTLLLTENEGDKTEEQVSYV
T1 sequence (P32305 whole entry): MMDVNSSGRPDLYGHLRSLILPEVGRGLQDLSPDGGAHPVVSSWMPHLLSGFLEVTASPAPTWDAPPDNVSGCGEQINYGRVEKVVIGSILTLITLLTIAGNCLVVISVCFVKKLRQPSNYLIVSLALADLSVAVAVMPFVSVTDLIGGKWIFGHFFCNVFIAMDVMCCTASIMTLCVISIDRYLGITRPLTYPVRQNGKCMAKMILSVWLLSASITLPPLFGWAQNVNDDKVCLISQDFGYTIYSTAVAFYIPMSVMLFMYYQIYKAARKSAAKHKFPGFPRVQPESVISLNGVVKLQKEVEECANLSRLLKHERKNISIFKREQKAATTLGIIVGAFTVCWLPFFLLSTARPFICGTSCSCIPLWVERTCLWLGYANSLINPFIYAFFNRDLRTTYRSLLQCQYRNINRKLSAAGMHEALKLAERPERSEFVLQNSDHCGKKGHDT

Consider `CN1CCc2c(c(-c3ccc(Cl)cc3)cn2Cc2ccccc2)C1` [Example 38, 1-Benzyl-3-(4-chloro-phenyl)-5-methyl-4,5,6,7-tetrahydro-1H-pyrrolo[3,2-c]pyridine], for which the Kb in test [1] (printed in the Ki 5-HT7 column of Table 1, read-out: pKb 5-HT7 (converted)) was 0.0158 µM.

With `Clc1ccc(-c2nn(Cc3ccccc3)c3c2CCNCC3)cc1` [Example 59, 1-Benzyl-3-(4-chloro-phenyl)-1,4,5,6,7,8-hexahydro-1,2,6-triaza-azulene], the Kb in test [1] (r5-HT7a/HEK-293 cells, estimated) is about 0.01 µM. Further, the inhibition constant (Ki) in test [2] turned out to be 0.16 µM; in test [3], 0.006 µM; in test [4], 0.28 µM; in test [5], 0.074 µM.

With `CC1Cc2c(nn(C3CCCC3)c2-c2ccc(F)cc2)CCN1` (stereo not drawn) [Example 309, 2-Cyclopentyl-3-(4-fluoro-phenyl)-5-methyl-2,4,5,6,7,8-hexahydro-1,2,6-triaza-azulene], the Ki amounted to 0.015 µM in test [2], 0.13 µM in test [3], 0.03 µM in test [4] and 0.13 µM in test [5].

Regarding `Cc1ccc(-c2c3c(nn2C2CCCC2)CC(C)NCC3)cc1` (stereo not drawn) [Example 310, 2-Cyclopentyl-7-methyl-3-p-tolyl-2,4,5,6,7,8-hexahydro-1,2,6-triaza-azulene], the Ki was determined as 0.0004 µM in test [2], 0.475 µM in test [3], 0.0002 µM in test [4] and 0.03 µM in test [5].

With `CC1Cc2nn(C(C)C)c(-c3ccccc3)c2CCN1` (stereo not drawn) [Example 311, 2-Isopropyl-7-methyl-3-phenyl-2,4,5,6,7,8-hexahydro-1,2,6-triaza-azulene], the Ki in test [2] stood at 0.1 µM; in test [3] it was 0.08 µM; in test [4], 0.14 µM; in test [5], 3 µM.

For `CC1Cc2nn(C(C)C)c(-c3ccc(F)cc3)c2CCN1` (stereo not drawn) [Example 313, 3-(4-Fluoro-phenyl)-2-isopropyl-7-methyl-2,4,5,6,7,8-hexahydro-1,2,6-triaza-azulene], the Ki in test [2] was 0.04 µM; in test [3], 0.03 µM; in test [4], 0.1 µM; in test [5], 1 µM.

`Cc1ccc(-c2c3c(nn2C(C)C)CC(C)NCC3)cc1` (stereo not drawn) [Example 315, 2-Isopropyl-7-methyl-3-p-tolyl-2,4,5,6,7,8-hexahydro-1,2,6-triaza-azulene]: the Ki in test [2] stood at 0.003 µM; in test [3], 0.012 µM; in test [4] it was 0.009 µM; in test [5], 0.3 µM.

Consider `Clc1ccc(-c2nn(Cc3ccncc3)c3c2CCNCC3)cc1` [Example 316, 3-(4-Chloro-phenyl)-1-pyridin-4-ylmethyl-1,4,5,6,7,8-hexahydro-1,2,6-triaza-azulene], for which the Ki in test [2] was 0.53 µM; in test [3] it was 0.0091 µM; in test [4], 0.06 µM; in test [5] it was 5 µM.
